Data from patent publication US20230382926A1, “COMPOUNDS AND USES THEREOF” (The University of The West Indies, priority 2022, published 2023).

Legend:
Test in all cases: Rescue concentration, modified checkerboard MIC adjuvant assay
Assay type in all cases: cell-based
[1] = tested on: Acinetobacter baumannii clinical isolate 9978; conditions: A. baumannii clinical isolate 9978
How it was run: (§1)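 Modified checkerboard: fixed breakpoint antibiotic (CLSI M100 ED31) + 2-fold compound dilutions; ca-MHB, 10^6 CFU/ml; 35° C., 24 h, aerobic; visual read; value = min compound conc. giving 99.99% kill at breakpoint.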

[2] = tested on: Enterobacter cloacae ATCC BAA-1143; conditions: E. cloacae ATCC BAA-1143
How it was run: as §1

[3] = tested on: Enterococcus faecalis ATCC 51299; conditions: E. faecalis ATCC 51299
How it was run: as §1

[4] = tested on: Escherichia coli ATCC 35150; conditions: E. coli ATCC 35150
How it was run: as §1

[5] = tested on: Klebsiella pneumoniae ATCC 49472; conditions: K. pneumoniae ATCC 49472
How it was run: as §1

[6] = tested on: Pseudomonas aeruginosa MDR 5805; conditions: P. aeruginosa MDR 5805
How it was run: as §1

[7] = tested on: Staphylococcus aureus ATCC BAA-2312; conditions: S. aureus ATCC BAA-2312
How it was run: as §1

[8] = tested on: Stenotrophomonas maltophilia MDR 7785; conditions: S. maltophilia MDR 7785
How it was run: as §1

[9] = tested on: Streptococcus pneumoniae ATCC 49619; conditions: S. pneumoniae ATCC 49619
[10] = Amox at susceptible breakpoint 8 μg mL^−1
[11] = Cef at susceptible breakpoint 8 μg mL^−1
[12] = Col at susceptible breakpoint 2 μg mL^−1
[13] = Gen at susceptible breakpoint 4 μg mL^−1
[14] = Imi at susceptible breakpoint 2 μg mL^−1
[15] = Mero at susceptible breakpoint 2 μg mL^−1
[16] = Pol B at susceptible breakpoint 2 μg mL^−1
[17] = Amp at susceptible breakpoint 8 μg mL^−1
[18] = Ceph at susceptible breakpoint 8 μg mL^−1
[19] = Chl at susceptible breakpoint 8 μg mL^−1
[20] = Col at susceptible breakpoint 8 μg mL^−1
[21] = Dox at susceptible breakpoint 4 μg mL^−1
[22] = Imi at susceptible breakpoint 1 μg mL^−1
[23] = Tri at susceptible breakpoint 8 μg mL^−1

SMILES: Oc1ccc(C(c2c[nH]c3ncccc23)c2c[nH]c3ncccc23)cc1 [SP-7azaBIM 135, 4-(bis(1H-pyrrolo[2,3-b]pyridin-3-yl)methyl)phenol]
- Rescue concentration, Amox (8) [1, 10]: >127 µg/mL
- Rescue concentration, Cef (8) [1, 11]: >128 µg/mL
- Rescue concentration, Col (2) [1, 12]: >128 µg/mL
- Rescue concentration, Gen (4) [1, 13]: >128 µg/mL
- Rescue concentration, Imi (2) [1, 14]: >128 µg/mL
- Rescue concentration, Mero (2) [1, 15]: >128 µg/mL
- Rescue concentration, Pol B (2) [1, 16]: >128 µg/mL
- Rescue concentration, Amp (8) [2, 17]: 64 µg/mL
- Rescue concentration, Azi (16) ([2]; Azi at susceptible breakpoint 16 μg mL^−1): >128 µg/mL
- Rescue concentration, Ceph (8) [2, 18]: >128 µg/mL
- Rescue concentration, Chl (8) [2, 19]: >128 µg/mL
- Rescue concentration, Col (8) [2, 20]: 64 µg/mL
- Rescue concentration, Dox (4) [2, 21]: >128 µg/mL
- Rescue concentration, Gen (4) [2, 13]: >128 µg/mL
- Rescue concentration, Imi (1) [2, 22]: 32 µg/mL
- Rescue concentration, Tet (4) ([2]; Tet at susceptible breakpoint 4 μg mL^−1): >128 µg/mL
- Rescue concentration, Amp (8) [3, 17]: >128 µg/mL
- Rescue concentration, Chl (8) [3, 19]: >128 µg/mL
- Rescue concentration, Dox (4) [3, 21]: >128 µg/mL
- Rescue concentration, Ery (0.5) ([3]; Ery at susceptible breakpoint 0.5 μg mL^−1): >128 µg/mL
- Rescue concentration, Tri (8) [3, 23]: >128 µg/mL
- Rescue concentration, Van (4) ([3]; Van at susceptible breakpoint 4 μg mL^−1): >128 µg/mL
- Rescue concentration, Amp (8) [4, 17]: >128 µg/mL
- Rescue concentration, Cip (0.25) ([4]; Cip at susceptible breakpoint 0.25 μg mL^−1): >128 µg/mL
- Rescue concentration, Dox (4) [4, 21]: >128 µg/mL
- Rescue concentration, Gen (4) [4, 13]: >128 µg/mL
- Rescue concentration, Imi (1) [4, 22]: 64 µg/mL
- Rescue concentration, Amox (8) [5, 10]: >128 µg/mL
- Rescue concentration, Amp (8) [5, 17]: >128 µg/mL
- Rescue concentration, Col (8) [5, 20]: >128 µg/mL
- Rescue concentration, Imi (1) [5, 22]: >128 µg/mL
- Rescue concentration, Mero (1) ([5]; Mero at susceptible breakpoint 1 μg mL^−1): >128 µg/mL
- Rescue concentration, Pol B (8) ([5]; Pol B at susceptible breakpoint 8 μg mL^−1): >128 µg/mL
- Rescue concentration, Amox (8) [6, 10]: 64 µg/mL
- Rescue concentration, Col (2) [6, 12]: >128 µg/mL
- Rescue concentration, Gen (4) [6, 13]: >128 µg/mL
- Rescue concentration, Imi (2) [6, 14]: >128 µg/mL
- Rescue concentration, Mero (2) [6, 15]: >128 µg/mL
- Rescue concentration, Pol B (2) [6, 16]: >128 µg/mL
- Rescue concentration, Azi (2) ([7]; Azi at susceptible breakpoint 2 μg mL^−1): >128 µg/mL
- Rescue concentration, Gen (4) [7, 13]: >128 µg/mL
- Rescue concentration, Pen (0.12) ([7]; Pen at susceptible breakpoint 0.12 μg mL^−1): >128 µg/mL
- Rescue concentration, Tri (8) [7, 23]: >128 µg/mL
- Rescue concentration, Van (2) ([7]; Van at susceptible breakpoint 2 μg mL^−1): >128 µg/mL
- Rescue concentration, Cef (8) [8, 11]: >128 µg/mL
- Rescue concentration, Ceph (8) [8, 18]: >128 µg/mL
- Rescue concentration, Chl (8) [8, 19]: >128 µg/mL
- Rescue concentration, Cip (2) ([8]; Cip at susceptible breakpoint 2 μg mL^−1): >128 µg/mL
- Rescue concentration, Gen (4) [8, 13]: >128 µg/mL
- Rescue concentration, Imi (2) [8, 14]: >128 µg/mL
- Rescue concentration, Mero (2) [8, 15]: >128 µg/mL
- Rescue concentration, Tri (2) ([8]; Tri at susceptible breakpoint 2 μg mL^−1): >128 µg/mL
- Rescue concentration, Amox (2) ([9]; Amox at susceptible breakpoint 2 μg mL^−1): >128 µg/mL
- Rescue concentration, Ery (0.25) ([9]; Ery at susceptible breakpoint 0.25 μg mL^−1): >128 µg/mL
- Rescue concentration, Imi (0.12) ([9]; Imi at susceptible breakpoint 0.12 μg mL^−1): >128 µg/mL
